The values that follow come from patent US20200288710A1, “SUBSTITUTED SULPHONAMIDES FOR CONTROLLING ANIMAL PESTS” (BAYER CROPSCIENCE AKTIENGESELLSCHAFT, priority 2016, published 2020).

The subject of assay [1] is Myzus persicae. In words: Myzus persicae spray test (Chinese cabbage leaf discs). The format is in vivo. The following applies: foliar, 120 h, 500 g/ha, after 5-6 days, read-out: efficacy. On the procedure: Myzus persicae—Spray Test Solvent: 78 parts by weight of acetone • • 1.5 parts by weight of dimethylformamide Emulsifier: alkylaryl polyglycol ether To produce a suitable preparation of active compound, 1 part by weight of active compound is dissolved using the specified parts by weight of solvent and made up with water containing an emulsifier concentration of 1000 ppm until the desired concentration is attained. To produce further test concentrations, the formulation is diluted with emulsifier-containing water. Discs of Chinese cabbage leaves (Brassica pekinensis) infested by all stages of the green peach aphid (Myzus persicae) are sprayed with an active compound preparation of the desired concentration. After 5-6 days, the efficacy in % is determined. 100% means that all the aphids have been killed; 0% means that no aphids have been killed.

Assay [2] has as its system Myzus persicae. In words: Myzus persicae oral test. The format is in vivo. Conditions: 120 h, 20 ppm, oral uptake, after 5 days, read-out: efficacy. The procedure: Myzus persicae—Oral Test Solvent: 100 parts by weight of acetone To produce a suitable preparation of active compound, 1 part by weight of active compound is dissolved using the specified parts by weight of solvent and made up with water until the desired concentration is attained. 50 μl of the active compound preparation are transferred into microtitre plates and made up to a final volume of 200 μl with 150 μl of IPL41 insect medium (33%+15% sugar). Subsequently, the plates are sealed with parafilm, which a mixed population of green peach aphids (Myzus persicae) within a second microtitre plate is able to puncture and imbibe the solution through it. After 5 days, the efficacy in % is determined. 100% means that all the aphids have been killed; 0% means that no aphids have been killed.

The structures appear in SMILES notation.

Take `COc1ccccc1S(=O)(=O)NC(=O)c1cn(C)c(-c2c(F)cc(F)cc2F)n1` [Example 7]: the pest or weed control at 500 g/ha in the assay with Myzus persicae [1] came out at 90%. Moreover, the pest or weed control at 20 ppm in the assay on Myzus persicae [2] amounted to 90%. As to `Cn1nc(C(=O)NS(=O)(=O)c2ccccc2Cl)nc1-c1c(F)cccc1F` [Example 11], in the assay on Myzus persicae [1], the pest or weed control at 500 g/ha came to 100%. Further, the pest or weed control at 20 ppm in the assay on Myzus persicae [2] turned out to be 100%. For `COc1ccc(Cl)c(S(=O)(=O)NC(=O)c2nc(-c3c(F)cccc3F)n(C)n2)c1` [Example 12], in the assay with Myzus persicae [1], the pest or weed control at 500 g/ha was 90%. For the same molecule, in the assay on Myzus persicae [2], the pest or weed control at 20 ppm worked out at 90%.

Consider `COc1ccc(F)cc1S(=O)(=O)NC(=O)c1cn(C)c(-c2c(F)cccc2F)n1` [Example 17], for which, in the assay on Myzus persicae [1], the pest or weed control at 500 g/ha is 90%. The pest or weed control at 20 ppm with Myzus persicae [2] was found to be 100%. For `COc1ccc(OC)c(S(=O)(=O)NC(=O)c2cn(C)c(-c3c(F)cccc3F)n2)c1` [Example 19] the same measures were 90% and 100%. On to `CCn1cc(C(=O)NS(=O)(=O)c2ccccc2C)nc1-c1ccccc1Cl` [Example 22], for which the pest or weed control at 500 g/ha in the assay with Myzus persicae [1] is 100%. Further, the pest or weed control at 20 ppm in the assay with Myzus persicae [2] was 100%. As for `Cn1cc(C(=O)NS(=O)(=O)c2ccccc2C(F)(F)F)nc1-c1c(F)cccc1F` [Example 26], the pest or weed control at 500 g/ha with Myzus persicae [1] amounted to 100%. Besides, the pest or weed control at 20 ppm in the assay on Myzus persicae [2] was found to be 100%. Take `Cc1ccccc1-c1nc(C(=O)NS(=O)(=O)c2ccccc2C(F)(F)F)cn1C` [Example 28]: the pest or weed control at 500 g/ha in the assay on Myzus persicae [1] was determined as 100%. Further, the pest or weed control at 20 ppm with Myzus persicae [2] was found to be 100%.

On to `Cn1cc(C(=O)NS(=O)(=O)c2ccccc2C(F)(F)F)nc1-c1ccccc1F` [Example 30], for which, in the assay with Myzus persicae [1], the pest or weed control at 500 g/ha stood at 90%. Moreover, the pest or weed control at 20 ppm in the assay with Myzus persicae [2] is 100%. For `Cn1cc(C(=O)NS(=O)(=O)c2c(F)cccc2F)nc1-c1ccccc1Cl` [Example 53] the same measures were 100% and 100%. As to `Cn1cc(C(=O)NS(=O)(=O)c2ccccc2F)nc1-c1ccccc1Cl` [Example 57], the pest or weed control at 500 g/ha in the assay on Myzus persicae [1] was 100%. Moreover, in the assay with Myzus persicae [2], the pest or weed control at 20 ppm was 100%. On to `COc1ccccc1S(=O)(=O)NC(=O)c1cn(C)c(-c2ccccc2Cl)n1` [Example 59], for which, in the assay with Myzus persicae [1], the pest or weed control at 500 g/ha was 90%. Moreover, the pest or weed control at 20 ppm with Myzus persicae [2] came to 100%. With `Cn1cc(C(=O)NS(=O)(=O)CC(F)(F)F)nc1-c1ccccc1Cl` [Example 66], the pest or weed control at 500 g/ha with Myzus persicae [1] came to 100%. The pest or weed control at 20 ppm with Myzus persicae [2] amounted to 100%.

As for `CCS(=O)(=O)NC(=O)c1cn(-c2ccccc2)c(-c2ccccc2Cl)n1` [Example 75], the pest or weed control at 500 g/ha with Myzus persicae [1] stood at 100%. Besides, in the assay with Myzus persicae [2], the pest or weed control at 20 ppm amounted to 90%.

With `Cn1cc(C(=O)NS(=O)(=O)c2ccccc2Cl)nc1-c1c(F)cccc1F` [Example 91], the pest or weed control at 500 g/ha in the assay on Myzus persicae [1] was found to be 90%. For the same molecule, the pest or weed control at 20 ppm in the assay with Myzus persicae [2] turned out to be 100%. With `Cn1cc(C(=O)NS(=O)(=O)c2ccccc2Cl)nc1-c1ccccc1F` [Example 94], the pest or weed control at 500 g/ha in the assay with Myzus persicae [1] stood at 100%. In addition, the pest or weed control at 20 ppm in the assay with Myzus persicae [2] was found to be 100%. For the molecule `COc1ccc(Cl)c(S(=O)(=O)NC(=O)c2cn(C)c(-c3ccccc3F)n2)c1` [Example 95], the pest or weed control at 500 g/ha in the assay on Myzus persicae [1] is 90%. Also, in the assay with Myzus persicae [2], the pest or weed control at 20 ppm came to 100%. For `Cc1ccccc1-c1nc(C(=O)NS(=O)(=O)c2ccccc2Cl)cn1C` [Example 97] the same measures were 100% and 100%. Turning to `Cc1ccccc1S(=O)(=O)NC(=O)c1cn(C)c(-c2c(F)cccc2Cl)n1` [Example 110], the pest or weed control at 500 g/ha in the assay with Myzus persicae [1] worked out at 90%. Moreover, in the assay with Myzus persicae [2], the pest or weed control at 20 ppm turned out to be 100%. For the molecule `COc1ccccc1S(=O)(=O)NC(=O)c1cn(C)c(-c2c(F)cccc2Cl)n1` [Example 111], the pest or weed control at 500 g/ha with Myzus persicae [1] was 100%. For the same molecule, the pest or weed control at 20 ppm with Myzus persicae [2] stood at 100%. In the case of `CCc1[nH]c(-c2cc(F)cc(F)c2)nc1C(=O)NS(=O)(=O)C(C)C` [Example 127], the pest or weed control at 500 g/ha in the assay on Myzus persicae [1] was 90%. As for `COc1cc(C)c(S(=O)(=O)NC(=O)c2cn(C)c(-c3c(F)cccc3F)n2)cc1C` [Example 138], the pest or weed control at 500 g/ha in the assay on Myzus persicae [1] worked out at 100%. On the same count and under the same terms, then `Cc1[nH]c(C(=O)NS(=O)(=O)c2ccccc2Cl)nc1-c1c(F)cccc1F` [Example 145], with 90%; and `CCOc1ccccc1S(=O)(=O)NC(=O)c1cn(C)c(-c2c(F)cccc2Cl)n1` [Example 154], with 90%.

As to `COc1ccc(Cl)c(S(=O)(=O)NC(=O)c2cnc(-c3c(F)cccc3F)n2C)c1` [Example 160], the pest or weed control at 500 g/ha in the assay with Myzus persicae [1] was determined as 90%. On the same count and under the same terms, to `Cn1cc(C(=O)NS(=O)(=O)c2cc(Cl)cc(Cl)c2)nc1-c1ccccc1Cl` [Example 166] belongs 90%; to `Cn1cc(C(=O)NS(=O)(=O)c2cccc(C#N)c2)nc1-c1ccccc1Cl` [Example 167], 90%. `Cn1cc(C(=O)NS(=O)(=O)c2ccc(C#N)cc2)nc1-c1ccccc1Cl` [Example 168]: the pest or weed control at 500 g/ha with Myzus persicae [1] was determined as 90%.

`CN(C)S(=O)(=O)NC(=O)c1cn(C)c(-c2ccccc2Cl)n1` [Example 204]: the pest or weed control at 500 g/ha with Myzus persicae [1] is 100%. Turning to `COc1ccc(Cl)c(S(=O)(=O)NC(=O)c2cnc(-c3cc(Cl)cc(Cl)c3)[nH]2)c1` [Example 224], the pest or weed control at 500 g/ha with Myzus persicae [1] was 90%.

Consider `Cn1cc(C(=O)NS(=O)(=O)c2ccccc2)nc1-c1ccccc1Cl` [Example 229], for which, in the assay on Myzus persicae [1], the pest or weed control at 500 g/ha turned out to be 100%. The same measure, in the same setting: to `Cc1nc(Cl)sc1S(=O)(=O)NC(=O)c1cn(C)c(-c2c(F)cccc2F)n1` [Example 346] belongs 90%; to `Cn1cc(C(=O)NS(=O)(=O)c2cccs2)nc1-c1c(F)cccc1F` [Example 349], 100%. The same measure, in the same setting: to `COc1cccc(C(F)(F)F)c1S(=O)(=O)NC(=O)c1cn(C)c(-c2c(F)cccc2F)n1` [Example 374] belongs 100%; to `CCc1ccc(OC)c(S(=O)(=O)NC(=O)c2cn(C)c(-c3c(F)cccc3F)n2)c1` [Example 391], 90%. In the case of `Cn1cc(C(=O)NS(=O)(=O)c2cc(C(F)(F)F)ccc2C(F)(F)F)nc1-c1c(F)cccc1F` [Example 400], in the assay on Myzus persicae [1], the pest or weed control at 500 g/ha is 90%. Still for that read-out and setting: to `Cn1cc(C(=O)NS(=O)(=O)c2cc(F)ccc2F)nc1-c1c(F)cccc1F` [Example 455] belongs 90%. Consider `Cc1ccccc1S(=O)(=O)NC(=O)c1cn(C)c(-c2ccccc2OC(F)(F)F)n1` [Example 458], for which the pest or weed control at 500 g/ha with Myzus persicae [1] was 90%.

Take `Cc1ccccc1S(=O)(=O)NC(=O)c1cn(C)c(-c2cccnc2)n1` [Example 488]: the pest or weed control at 500 g/ha with Myzus persicae [1] worked out at 90%. For the molecule `Cc1ccccc1S(=O)(=O)NC(=O)c1cn(C)c(-c2ccccn2)n1` [Example 493], the pest or weed control at 500 g/ha in the assay with Myzus persicae [1] is 100%. As for `COc1ccccc1S(=O)(=O)NC(=O)c1cn(C)c(-c2cc(F)ccc2F)n1` [Example 526], in the assay on Myzus persicae [1], the pest or weed control at 500 g/ha is 90%. As to `COc1ccccc1S(=O)(=O)NC(=O)c1cn(C)c(-c2ccccc2[N+](=O)[O-])n1` [Example 529], in the assay with Myzus persicae [1], the pest or weed control at 500 g/ha turned out to be 100%.

`COc1ccc(OC)c(S(=O)(=O)NC(=O)c2cn(C)c(-c3ncccc3F)n2)c1` [Example 608]: the pest or weed control at 500 g/ha with Myzus persicae [1] stood at 100%.
